Counter-ions that a name gives are not always drawn. Like-named read-outs stand apart in the source and are kept apart here.
What was measured:
BCL-XL = BCL-XL (Homo sapiens (Human), UniProt Q07817); assay: Protein-protein interaction assay BCL-XL/Bad BH3 peptide (BCL-XL Assay, TR-FRET); assay type: binding; conditions: read-out: BCL-XL Assay IC50 (median)
SUDHL5 [1] = assay: Induction of caspase-3/7 activity (Assay 4), SUDHL5; assay type: cell-based; conditions: SUDHL5 cells
In short: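 DLBCL cells treated with compounds for 3 hours at 37° C. Caspase-3/7 activity measured by Caspase-Glo 3/7 luminescence, with medium-only background subtracted.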

SUDHL5 [2] = assay: Induction of cytotoxicity (Assay 6), SUDHL5
Experimental: Assay 6 Induction of Cytotoxicity Upon Treatment of Cells with Selected Compounds
Therefore, cytotoxicity assays were run in parallel in SUDHL5 and SUDHL10 cells.
The different cell lines were plated in culture medium (RPMI 1640 [GIBCO #22400-089]supplemented with 10% Fetal Bovine Serum) at a density of 3,300 cells in 30 μL/well in a sterile, solid black, flat bottom, polystyrene, TC-treated 384-well microplate (Corning #3571) using Multidrop Combi Reagent Dispenser. As a control, medium without cells was also added to the plate. Cells were incubated in a humidified incubator at 37° C. overnight. […] Rim wells were excluded. The cells were incubated for 5 hours in a humidified incubator at 37° C. After this incubation, 30 μL of CellTiter-Glo® Luminescent Cell Viability reagent (Promega, G7573) was added to each well using the Multidrop Combi Reagent Dispenser, followed by 15 minutes incubation on a shaker at room temperature. Finally, luminescence was read at 0.1 ms, with a gain of 3000 using the PHERAstar FS microplate reader (BMG Labtech).

AMO-1 = assay: Antiproliferation assay 7, AMO-1; assay type: cell-based; conditions: AMO-1 cells, CellTiter-Glo, read-out: Antiproli AMO-1 IC50 median
In short: (§1)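 Cells were exposed to compound for 72 hours at 37° C. Viability was measured by CellTiter-Glo luminescence. A day 0 plate read at the start served as the time-zero reference.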

HMC-1-8 = assay: Antiproliferation assay 7, HMC-1-8; assay type: cell-based; conditions: HMC-1-8 cells, CellTiter-Glo, read-out: Antiproli HMC-1-8 IC50 median
In short: as §1

[3] = 3 hours, Caspase-Glo 3/7, read-out: Caspase SUDHL5 EC50 (median)
[4] = read-out: Cytotox SUDHL5 IC50 (median), SUDHL5 cells, 5 hours, CellTiter-Glo

Chain of BCL-XL (Q07817 other isoform, or with tags, fused parts or gaps): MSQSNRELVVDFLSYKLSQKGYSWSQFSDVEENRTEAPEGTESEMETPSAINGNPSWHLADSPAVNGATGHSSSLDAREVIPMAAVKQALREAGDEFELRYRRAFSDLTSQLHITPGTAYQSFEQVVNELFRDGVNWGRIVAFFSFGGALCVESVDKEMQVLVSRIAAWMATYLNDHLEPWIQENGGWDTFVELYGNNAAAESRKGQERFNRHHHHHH

Cc1c2c(nn1C)N(C)CCCCCn1c(C(=O)O)c(CCCOc3cccc4ccccc34)c3ccc(Cl)c-2c31 (racemic) [Example 71, (rac)-4-chloro-2,3,15-trimethyl-7-{3-[(naphthalen-1-yl)oxy]propyl}-10,11,12,13,14,15-hexahydro-2H-pyrazolo[4′,3′:4,5][1,6]diazacycloundecino[3,2,1-hi]indole-8-carboxylic acid]
IC50 (BCL-XL): > 20000 nM
EC50 (SUDHL5 [1]; Homo sapiens, SU-DHL-5, 3 h, Caspase-Glo 3/7, read-out: Caspase SUDHL5 EC50 (median)): 690 nM
IC50 (SUDHL5 [2]; Homo sapiens, SU-DHL-5, 5 h, read-out: Cytotox SUDHL5 IC50 (median), SUDHL5 cells, 5 hours, CellTiter-Glo): 690 nM
IC50 (AMO-1; Homo sapiens, AMO1, 72 h): 5000 nM
IC50 (HMC-1-8; 72 h): 22000 nM

Cc1c2c(nn1C)N(C)CCCCCn1c(C(=O)O)c(CCCOc3cccc4cc(F)ccc34)c3ccc(Cl)c-2c31 (racemic) [Example 74, (rac)-4-chloro-7-{3-[(6-fluoronaphthalen-1-yl)oxy]propyl}-2,3,15-trimethyl-10,11,12,13,14,15-hexahydro-2H-pyrazolo[4′,3′:4,5][1,6]diazacycloundecino[3,2,1-hi]indole-8-carboxylic acid]
IC50 (BCL-XL): > 20000 nM
EC50 (SUDHL5 [1]; [3]): 710 nM
IC50 (SUDHL5 [2]; [4]): 1000 nM
IC50 (AMO-1; 72 hours): 1100 nM
IC50 (HMC-1-8; 72 hours): 5400 nM

CCc1c2c(nn1C)N(C)CCCCCn1c(C(=O)O)c(CCCOc3cccc4cc(F)ccc34)c3ccc(Cl)c-2c31 (single isomer, unassigned; enantiomer 1) [Example 78, 4-chloro-3-ethyl-7-{3-[(6-fluoronaphthalen-1-yl)oxy]propyl}-2,15-dimethyl-10,11,12,13,14,15-hexahydro-2H-pyrazolo[4′,3′:4,5][1,6]diazacycloundecino[3,2,1-hi]indole-8-carboxylic acid-N-ethylethanamine Salt—Enantiomer 1]
IC50 (BCL-XL): > 20000 nM
EC50 (SUDHL5 [1]; [3]): 400 nM
IC50 (SUDHL5 [2]; [4]): 310 nM
IC50 (AMO-1; 72 hours): 770 nM
IC50 (HMC-1-8; 72 hours): 2400 nM

Cc1c2c(nn1C)N(C)CCCCCn1c(C(=O)O)c(CCCOc3cccc4cc(F)ccc34)c3ccc(Cl)c-2c31 [Example 75, (+)-4-chloro-7-{3-[(6-fluoronaphthalen-1-yl)oxy]propyl}-2,3,15-trimethyl-10,11,12,13,14,15-hexahydro-2H-pyrazolo[4′,3′:4,5][1,6]diazacycloundecino[3,2,1-hi]indole-8-carboxylic acid-N-ethylethanamine salt]
IC50 (BCL-XL): > 20000 nM
EC50 (SUDHL5 [1]; [3]): 330 nM
IC50 (SUDHL5 [2]; [4]): 380 nM
IC50 (AMO-1; 72 hours): 1100 nM
IC50 (HMC-1-8; 72 hours): 3400 nM
